Test: Normal organ dosimetry Cycle 1: SPECT/CT, TIACs, OLINDA 2.2.3 absorbed radiation dose
Assay type: in vivo, human
Conditions: for Absorbed Dose, Mean / Absorbed Dose, max / Absorbed Dose, median / Absorbed Dose, min: n = 26
Protocol: This Example presents the biodistribution, dosimetry, and pharmacokinetics (PK) results of a PK/Dosimetry sub-study performed as part of a Phase III trial. Twenty-seven (27) patients were administered a target activity of 7.4±10% GBq of ^177Lu-PSMA-I&T and underwent single photon emission computed tomography (SPECT)/computed tomography (CT) imaging at four timepoints (4 h, 24 h, 48 h, and 168 h). Image data was analysed to compute time-activity curves (TACs) and subsequently time-integrated activity coefficients (TIACs) in each organ of interest and in organs showing appreciable and meaningful ^177Lu-PSMA-I&T activity. Organ Level Internal Dose Assessment (OLINDA 2.2.3) was used to compute organ and whole body absorbed radiation doses for each patient.
All participating sites underwent a rigorous site setup process during which all dose calibrators, scanners, and gamma counters used in the sub-study were calibrated. Sites were allowed to enroll patients in the sub-study only after the completion and approval of all site setup processes by Invicro. Patients underwent SPECT/CT imaging, with anatomical coverage typically extending from the salivary glands to the pelvis, following the administration of a targeted 7.4±10% GBq of ^177Lu-PSMA-I&T at cycle 1. SPECT/CT imaging was performed at four timepoints: 4 h, 24 h, 48 h, and 168 h post-injection. Additionally, a subset of patients imaged at Cycle 1 (16 out of 27), were also imaged at Cycle 3 (Table 2).
The imaging data was analyzed using Invicro's VivoQuant software, a validated software used in a 21 CFR § 11-compliant workflow. The general quantification approach was based on the principles detailed in the Medical Internal Radiation Dose (MIRD) Pamphlet No. 16, No 23, and No 26 as appropriate.
Volume of interest (VOI) (kidneys, bladder, liver, lumbar vertebrae L2-L4, lacrimal glands, salivary glands [parotid and submandibular glands], and whole body) were delineated on each dataset by a trained image analyst. […] Organs were segmented either by drawing the entire contour of the organ, or by placing a sphere in a representative region of the organ and then multiplying by the organ's effective mass (based on patient's height and weight). Segmentation methods for each organ are specified in Table 3 and were consistently applied to each patient.
Clearance of the radiopharmaceutical was derived from a data-appropriate fit of each organ's TAC. Depending on the TAC's shape, the data was fitted with the sum of one, two, or three exponentials, or using a rise and fall model. Fitting was performed with in-house Python software. TIACs were calculated through analytical integration of the curve fit extrapolated to infinity. […] A whole-body TAC was derived from delineating the imaged body. The remainder activity was determined by subtracting the cumulative organ TIACs from the whole body TIAC.
Organ TIACs were input into OLINDA 2.2.3 for the computation of organ and whole-body absorbed doses, using International Commission on Radiological Protection (ICRP)-103 weighing factors. The ICRP-89 derived male phantom was used for dose estimation. Organs and body mass as defined by ICRP-89 were scaled based on height and mass using patient effective mass.^4 The voiding bladder model as implemented in OLINDA was used to determine bladder TIAC, assuming a voiding interval of 4 hours. The human alimentary tract model (HAT model) described in ICRP 100 and implemented in OLINDA was used to compute doses to the small intestine, right colon, left colon and rectum for patients showing clearance through the GI tract. The fraction of injected activity (fIA) cleared via the GI tract was determined by taking the peak fIA in the GI tract over all the imaging timepoints. […] The Red Marrow mass in L2-L4 was assumed to be 6.7% of the total red marrow mass.

[1] = Adrenals, 16 patients imaged at cycle 1 and 3
[2] = Brain, 16 patients imaged at cycle 1 and 3
[3] = Cycle 1, target activity 7.4±10% GBq, patients with mCRPC
[4] = Esophagus, 16 patients imaged at cycle 1 and 3
[5] = Eyes, 16 patients imaged at cycle 1 and 3
[6] = Gallbladder wall, 16 patients imaged at cycle 1 and 3
[7] = Heart wall, 16 patients imaged at cycle 1 and 3

O=C([O-])CC[C@H](NC(=O)N[C@@H](CCCCNC(=O)CCCCCCC(=O)NCCCC[C@@H](NC(=O)[C@@H](Cc1ccccc1)NC(=O)[C@@H](Cc1ccc(O)c(I)c1)NC(=O)CC[C@H](C(=O)[O-])N1CCN(CC(=O)[O-])CCN(CC(=O)[O-])CCN(CC(=O)[O-])CC1)C(=O)[O-])C(=O)[O-])C(=O)[O-].[177Lu+3].[H+].[H+].[H+].[H+].[H+] [^177Lu-PSMA I&T, (3S,7S,26R,29R,32R,37R)-29-benzyl-32-(4-hydroxy-3-iodobenzyl)-5,13,20,28,31,34-hexaoxo-37-(4,7,10-tris(carboxymethyl)-1,4,7,10-tetraazacyclododecan-1-yl)-4,6,12,21,27,30,33-heptaazaheptatriacontane-1,3,7,26,37-pentacarboxylic acid; lutetium-177 (III)]
Absorbed Dose in Cycle 1, Mean [1]: 0.02 Gy/GBq
Absorbed Dose in Cycle 1, max [1]: 0.08 Gy/GBq
Absorbed Dose in Cycle 1, min [1]: 0.01 Gy/GBq
Absorbed Dose, Mean (Adrenals, Cycle 1): 0.02 Gy/GBq
Absorbed Dose, max (Adrenals, Cycle 1): 0.08 Gy/GBq
Absorbed Dose, median (Adrenals, Cycle 1): 0.02 Gy/GBq
Absorbed Dose, min (Adrenals, Cycle 1): 0.01 Gy/GBq
Absorbed Dose in Cycle 1, Mean (Adrenals, N = 16): 0.02 Gy/GBq
Absorbed Dose in Cycle 1, max (Adrenals, N = 16): 0.08 Gy/GBq
Absorbed Dose in Cycle 1, min (Adrenals, N = 16): 0.01 Gy/GBq
Absorbed Dose in Cycle 1, Mean [2]: 0.01 Gy/GBq
Absorbed Dose in Cycle 1, max [2]: 0.07 Gy/GBq
Absorbed Dose in Cycle 1, min [2]: 0.00 Gy/GBq
Absorbed Dose, Mean (Brain, Cycle 1): 0.01 Gy/GBq
Absorbed Dose, max (Brain, Cycle 1): 0.07 Gy/GBq
Absorbed Dose, median (Brain, Cycle 1): 0.01 Gy/GBq
Absorbed Dose, min (Brain, Cycle 1): 0.00 Gy/GBq
Absorbed Dose in Cycle 1, Mean (Brain, N = 16): 0.01 Gy/GBq
Absorbed Dose in Cycle 1, max (Brain, N = 16): 0.07 Gy/GBq
Absorbed Dose in Cycle 1, min (Brain, N = 16): 0.00 Gy/GBq
mean red marrow (bone marrow) absorbed radiation dose (Cycle 1, image-based, L2-L4): 0.08±0.12 Gy/GBq
mean red marrow absorbed dose (Cycle 1, remaining 20 patients, excluding six high-marrow-dose cases and the superscan patient): 0.02±0.02 Gy/GBq
absorbed radiation dose, salivary glands (mean ± SD) (Cycle 1, target activity 7.4±10% GBq, patient 12-004 excluded): 0.19±0.16 Gy/GBq
absorbed radiation dose, kidneys (mean ± SD) [3]: 0.41±0.15 Gy/GBq
absorbed radiation dose, lacrimal glands (mean ± SD) [3]: 0.40±0.36 Gy/GBq
absorbed radiation dose, left colon (mean ± SD) [3]: 0.47±0.31 Gy/GBq
absorbed radiation dose, rectum (mean ± SD) [3]: 0.44±0.30 Gy/GBq
absorbed radiation dose, urinary bladder (mean ± SD) [3]: 0.41±0.05 Gy/GBq
Absorbed Dose in Cycle 1, Mean [4]: 0.01 Gy/GBq
Absorbed Dose in Cycle 1, max [4]: 0.07 Gy/GBq
Absorbed Dose in Cycle 1, min [4]: 0.00 Gy/GBq
Absorbed Dose, Mean (Esophagus, Cycle 1): 0.02 Gy/GBq
Absorbed Dose, max (Esophagus, Cycle 1): 0.07 Gy/GBq
Absorbed Dose, median (Esophagus, Cycle 1): 0.01 Gy/GBq
Absorbed Dose, min (Esophagus, Cycle 1): 0.00 Gy/GBq
Absorbed Dose in Cycle 1, Mean (Esophagus, N = 16): 0.01 Gy/GBq
Absorbed Dose in Cycle 1, max (Esophagus, N = 16): 0.07 Gy/GBq
Absorbed Dose in Cycle 1, min (Esophagus, N = 16): 0.00 Gy/GBq
Absorbed Dose in Cycle 1, Mean [5]: 0.01 Gy/GBq
Absorbed Dose in Cycle 1, max [5]: 0.07 Gy/GBq
Absorbed Dose in Cycle 1, min [5]: 0.00 Gy/GBq
Absorbed Dose, Mean (Eyes, Cycle 1): 0.01 Gy/GBq
Absorbed Dose, max (Eyes, Cycle 1): 0.07 Gy/GBq
Absorbed Dose, median (Eyes, Cycle 1): 0.01 Gy/GBq
Absorbed Dose, min (Eyes, Cycle 1): 0.00 Gy/GBq
Absorbed Dose in Cycle 1, Mean (Eyes, N = 16): 0.01 Gy/GBq
Absorbed Dose in Cycle 1, max (Eyes, N = 16): 0.07 Gy/GBq
Absorbed Dose in Cycle 1, min (Eyes, N = 16): 0.00 Gy/GBq
Absorbed Dose in Cycle 1, Mean [6]: 0.02 Gy/GBq
Absorbed Dose in Cycle 1, max [6]: 0.07 Gy/GBq
Absorbed Dose in Cycle 1, min [6]: 0.00 Gy/GBq
Absorbed Dose, Mean (Gallbladder wall, Cycle 1): 0.02 Gy/GBq
Absorbed Dose, max (Gallbladder wall, Cycle 1): 0.07 Gy/GBq
Absorbed Dose, median (Gallbladder wall, Cycle 1): 0.01 Gy/GBq
Absorbed Dose, min (Gallbladder wall, Cycle 1): 0.00 Gy/GBq
Absorbed Dose in Cycle 1, Mean (Gallbladder wall, N = 16): 0.02 Gy/GBq
Absorbed Dose in Cycle 1, max (Gallbladder wall, N = 16): 0.07 Gy/GBq
Absorbed Dose in Cycle 1, min (Gallbladder wall, N = 16): 0.00 Gy/GBq
Absorbed Dose in Cycle 1, Mean [7]: 0.01 Gy/GBq
Absorbed Dose in Cycle 1, max [7]: 0.07 Gy/GBq
Absorbed Dose in Cycle 1, min [7]: 0.00 Gy/GBq
Absorbed Dose, Mean (Heart wall, Cycle 1): 0.02 Gy/GBq
Absorbed Dose, max (Heart wall, Cycle 1): 0.07 Gy/GBq
Absorbed Dose, median (Heart wall, Cycle 1): 0.01 Gy/GBq
Absorbed Dose, min (Heart wall, Cycle 1): 0.00 Gy/GBq
Absorbed Dose in Cycle 1, Mean (Heart wall, N = 16): 0.01 Gy/GBq
Absorbed Dose in Cycle 1, max (Heart wall, N = 16): 0.07 Gy/GBq

— patent publication US20250032651A1, “[177LU] LUTETIUM-PSMA I&T COMPOSITION AND DOSIMETRY, KIT, METHOD OF MAKING, AND METHOD OF USING THEREOF” (Curium US LLC, priority 2022, published 2025)
